# Results reported in patent US7374890B2, “Methods for identifying compounds that modulate ΔTRα2 activity” (University of Massachusetts, priority 2000, dated 2008).
# Experiments:
# [1] = test system: Ca-dependent Mg-ATPase release of p29 vesicles from F-actin; test: release of F-actin-bound p29 vesicles by Ca-dependent Mg-ATPase; type: biochemical, rat; conditions: 5 mM EGTA
# Excerpt: To determine whether this is a direct interaction between the vesicle and F-actin or is mediated by other actin-bound proteins, e.g., myosin V, the release of p29 vesicle bound to F-actin by activating a Ca-dependent Mg-ATPase was investigated. Synaptic vesicle-bound myosin V is released from F-actin by activating the Ca-dependent MgATPase found in the actin binding head of myosin V (Prekeris et al, 1997, J. Cell Biol. 137: 1589-1601; Nascimento et al., 1996, J. Biol. Chem. 271:17561-17569). In this experiment, confluent monolayers of astrocytes were grown in serum-free media for 16 hours, then D2 activity was induced with bt2cAMP and hydrocortisone, and the p29 vesicle was affinity radiolabeled with BrAc[^125I]T4. Cell lysates containing approximately 50,000 cpm of BrAc[^125I]T4-labeled p29 were pretreated with 10 nM […] at 37° C., followed by an additional 20 minute incubation with 0.1 mM Ca^2+, 1 mM Mg^2+, 0.1 mM ATP, or 5 mM EGTA. Triton-insoluble (F-actin bound) pellets were prepared as described herein. […] Triton-insoluble (F-actin-bound) pellets were separated from the Triton-soluble (vesicle) fraction by microfuge centrifugation (14,000×g for five minutes) and the distribution of p29 was determined by y-counting, and by SDS-PAGE analysis.
# [2] = molecular target: T1, ΔTRα2 (T4 Inactivating Protein; TIP) (Rattus norvegicus, UniProt P63059); test: rT3 binding displacement in nuclei-free extracts of cultured rat astrocytes
# T1 construct: ΔTRα2 is encoded by exons 8-10 resulting in an approximately 25 kd protein
# T1 sequence (P63059 whole entry, stated change not applied): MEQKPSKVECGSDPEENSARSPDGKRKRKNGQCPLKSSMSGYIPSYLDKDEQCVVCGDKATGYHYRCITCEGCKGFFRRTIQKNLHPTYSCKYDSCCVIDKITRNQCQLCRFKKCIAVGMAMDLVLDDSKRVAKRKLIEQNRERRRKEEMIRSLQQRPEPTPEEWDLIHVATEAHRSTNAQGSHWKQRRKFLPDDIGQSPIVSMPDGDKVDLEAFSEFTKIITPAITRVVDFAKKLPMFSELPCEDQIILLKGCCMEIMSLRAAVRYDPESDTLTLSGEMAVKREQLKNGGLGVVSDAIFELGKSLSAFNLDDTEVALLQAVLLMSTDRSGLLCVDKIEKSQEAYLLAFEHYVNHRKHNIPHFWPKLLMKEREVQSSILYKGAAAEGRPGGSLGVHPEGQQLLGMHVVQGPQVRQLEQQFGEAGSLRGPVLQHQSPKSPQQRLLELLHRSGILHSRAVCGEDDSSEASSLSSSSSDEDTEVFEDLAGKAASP
# Procedure: The properties of thyroid hormone binding to non-nuclear components of the cell were examined using ΔTRα2 (T4 Inactivating Protein; TIP)-containing, nuclei-free extracts of cultured rat astrocytes. […] Both rT3 and T4 specifically displace rT3 with Kd's of approximately 0.3-0.5 nM.
# ΔTRα1 = ΔTRα1 (Rattus norvegicus, UniProt P63059); test: [125I]rT3 displacement from cell-free translated ΔTRα1; type: binding; conditions: cell-free translated polypeptide
# Excerpt: (§1) ΔTRα1 and ΔTRα2 polypeptides were synthesized by cell-free translation of appropriate segments of the rat ΔTRα1 and ΔTRα2 cDNA using the coupled transcription-translation kit from Promega® (TNT) according to the manufacturer's instructions.
# ΔTRα2 = molecular target: T2, ΔTRα2 (Rattus norvegicus, UniProt P63059); test: [125I]rT3 displacement from cell-free translated ΔTRα2; type: binding; conditions: cell-free translated polypeptide
# T2 sequence (P63059 256-492): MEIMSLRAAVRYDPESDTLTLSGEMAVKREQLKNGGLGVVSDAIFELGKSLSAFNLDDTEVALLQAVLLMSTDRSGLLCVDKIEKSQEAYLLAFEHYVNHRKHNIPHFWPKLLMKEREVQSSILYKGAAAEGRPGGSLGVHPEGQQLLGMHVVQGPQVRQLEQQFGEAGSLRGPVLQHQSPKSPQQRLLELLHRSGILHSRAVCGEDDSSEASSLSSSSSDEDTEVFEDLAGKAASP
# Excerpt: as §1
# [3] = molecular target: binding of p29^GFP vesicles to F-actin; test: modified in vitro actin binding assay with p29^GFP-labeled vesicles; type: biochemical, rat; conditions: 0-100 nM, 20 minutes at 37° C.; read-out: EC50, increase in quantity of p29^GFP bound to F-actin
# Procedure: To define the specific region(s) of the myosin V tail that interact with the p29 vesicle, a series of deletion mutations were created based on the dominant negative effect of exogenous myosin V tail on p29 vesicle binding. Competition analysis of the myosin V deletion mutations on T4-dependent binding of p29 vesicles to F-actin was performed using a modified in vitro assay in which a GFP-tagged p29 fusion protein (p29^GFP) replaced the radioaffinity labeled native p29 (Farwell et al., 1990, J. Biol. Chem. 265:18546-18553; Farwell et al., 1993, J. Biol. Chem. 268:5055-5062). This allowed direct evaluation of the binding of fluorescent vesicles to F-actin without affinity radiolabeling of the p29 and subsequent SDS-PAGE analysis.
# Specific fluorescence at 510 nm (excitation, 488 nm) was then determined in the resuspended Triton-insoluble pellets.
# To determine if the myosin V tail could be captured by the p29^GFP vesicle, an exogenous myosin V^tail was introduced into astrocytes constitutively expressing p29^GFP by infection with Ad5-ΔMyo V^tail virus particles and examined the effects of T4 on the binding of the myosin V^tail to immunopurified p29^GFP vesicles. Astrocytes expressing p29^GFP were grown in serum-free media and treated for 16 hours with 1 mM bt2cAMP and 100 nM hydrocortisone. A separate pool of astrocytes was treated in serum-free media supplemented with 10 μM retinoic acid. Cells were collected by scraping, and lysed by two freeze-thaw cycles. […] Triton-soluble (vesicle) and Triton-insoluble (F-actin) fractions were separated by microflige centrifugation. Triton pellets were resuspended in 300 μl of PBS and fluorescence at 510 nm (excitation 488 nm) determined and relative fluorescence was reported as arbitrary units. Cells were treated with 10 nM T4 for twenty minutes and a Triton-soluble supernatant was prepared. Vesicles containing the p29^GFP were immunoprecipitated by anti-GFP IgG (2 μg/ml) and protein in the immunoprecipitates were resolved by SDS-PAGE. Immunoblot analysis of vesicle-associated myosin V was performed using the anti-myosin V antibody directed against the C-terminus.
# The quantity of each mutant protein synthesized was determined by [^35 S]-methionine incorporation. Astrocytes expressing p29^GFP were grown in serum-free media and treated for 16 hours with […] bt2cAMP and 100 nM hydrocortisone. p29^GFP V-lysate and F-lysate were prepared as described herein. 100 μg aliquots of p29^GFP V-lysate and F-lysate were pre-incubated, in triplicate, for 20 minutes at 37° C. in the presence of individual Δ myosin V mutant proteins (˜2-3 pmol polypeptide/50 μl mixture) were added to the actin-binding assay and pre-incubated for 20 minutes at 37° C. T4 (10 nM) was then added, the mixtures incubated for 20 minutes at 37° C., and F-actin bound, fluorescent p29^GFP vesicles were then isolated in the Triton-insoluble pellet.
# V lysates prepared from astrocytes over-expressing p29^GFP were pre-incubated for 30 minutes at room temperature with antisera raised against ΔTRα2, ΔTRα1, the C-terminus of MyoV (encoded by MyoV^tail, FIG. 5), the coiled-coil region of MyoV (encoded by MyoV^coil-coil, FIG. 5) and GFP (green fluorescent protein). T4 (10 nM) and actin fiber-containing F-lysate was then added, the mixtures incubated at 37° C. for 20 minutes, and the Triton-insoluble fraction isolated by centrifugation.
# astrocytes = test: subcellular distribution of immunoreactive TRα2-derived proteins in cultured astrocytes; type: cell-based, rat; conditions: serum-free medium, treated 20 minutes, 0.1% bovine serum albumin carrier
# Excerpt: The subcellular distribution of immunoreactive thyroid hormone receptor-derived proteins in primary brain cell cultures and in cultured astrocytes was examined. Primary brain cell cultures were fixed with 0.4% paraformaldehyde, permeabilized with Triton X-100®, and stained for TRα-derived proteins using specific antisera directed against the unique C-termini of TRα1 and TRα2 proteins, and visualized by staining with a secondary tagged antibody. Consistent with previous observations (Kolodny et al., 1985, Endocrinol. 117: 1848-1857), immunoreactive TRα1 proteins were found in the nuclei of astrocytes and neuronal cells. However, TRα2-derived proteins were not localized to the nucleus in either astrocytes or neurons, but appeared as donut shaped structures located throughout the astrocyte or as discreet punctate signals along neuronal fibers. This latter pattern is diagnostic for synapses in neuronal cultures (Wong et al., 1999, Neurosci. 89:221-233), and is consistent with the presence of ΔTRα2-derived protein in nerve terminals.
# The subcellular distribution of immunoreactive TRα2-derived proteins in cultured astrocytes was influenced by the presence of either T4 or rT3. In these experiments astrocytes were grown in serum-free medium, treated for 20 minutes with either […] or rT3, and fixed, permeabilized, and stained as described above. […]
# [4] = test system: cerebellar granule neurons; test: release of FM1-43-loaded synaptic vesicles from cerebellar granule neurons under continuous stimulus; type: cell-based, rat; conditions: 10 nM hormone; continuous stimulation by 50 mM KCl; vs no hormone controls; first order kinetics assumed
# Procedure: Granule neurons were grown for 7 days and rendered hormone free by growth in serum-free medium as detailed above. Coverslips were then placed in a perfusion chamber, mounted on the stage of a laser scanning confocal microscope and perfused at 1 ml/min at 25° C. with perfusion buffer (119 mM NaCl, 2.5 mM KCl, 2 mM CaCl2, 2 mM MgCl2, 25 mM HEPES (pH 7.4), 30 mM glucose, and […] AP-5). The effects of different hormones on synaptic vesicle trafficking were then determined. […] Depolarizing KCl was then removed from the perfusion buffer and the cells were exposed to FM1-43 for an additional 30 seconds to insure complete loading of recycling synaptic vesicles. Loaded cells were then washed free of dye and the cells were perfused for ten minutes at rest.
# Images of a single field of neuronal fibers were then taken immediately before adding a second depolarizing solution (perfusion buffer containing 50 mM KCl) and at one and two minutes after beginning the continuous stimulation by 50 mM KCl. Thirty to forty-five individual FM1-43 labeled nerve terminals were identified in the baseline images (taken prior to depolarization) and the change in fluorescence (DF) for each nerve terminal determined at the one and two minute time points. FIGS. 11A and 11B show the results of analysis of the hormone specificity of synaptic vesicle trafficking (FIG. 11A) and the influence of individual myo5a mutants (FIG. 11B) on synaptic vesicle transport in granule neurons.
# To evaluate the role of myo5a in synaptic vesicle transport, three different myo5a constructs were introduced into the neurons by replication-deficient adenoviral vectors (Δmyo5a^tail(MyoV^tail), Δmyo5a^c-term(MyoV^1830)and ΔMyo5a^CC(MyoV^cc) see FIG. 5) as described above. […] Neurons were infected with purified Ad5-constructs (MOI=10) 48 hours prior to the synaptic vesicle trafficking study, and allowed to recover in hormone (T4) supplemented medium. […] This modest influence of the VBD mutant on synaptic vesicle retention is likely to be due to the loss of the kinesin-binding domain that limits its delivery to nerve terminals.
# D2 activity = conditions: in astrocytes; cited from earlier work
# T4 deiodinases = conditions: cited from earlier work
# transthretin = transthretin (Homo sapiens, UniProt P02766); conditions: cited from earlier work
# deiodination = conditions: cited from earlier work
smiles,measurement,setting,value
O=C(O)CN(CCOCCOCCN(CC(=O)O)CC(=O)O)CC(=O)O [EGTA],"block of Ca2+-stimulated, Mg2ATPase-dependent release of p29 from F-actin",[1],more than 50%
"N[C@@H](Cc1ccc(Oc2cc(I)c(O)c(I)c2)c(I)c1)C(=O)O [rT3, 3, 3′, 5′-triiodothyronine]",Kd,[2],0.3 to 0.5 nM
same,Kd,ΔTRα1,0.3 to 1 nM
same,Kd,ΔTRα2,0.3 to 1 nM
same,EC50,[3],~0.5 nM
same,subcellular distribution of TRα2-derived proteins,astrocytes,coalescence of the TRα2-derived proteins around the perinuclear space
same,decrease of the rate of FM1-43 release,[4],75%
Cc1c(-c2cc(Br)c(O)c(Br)c2)oc2ccc(O)cc2c1=O [EMD21388],quantity of D2 activity,D2 activity,decreases the quantity of D2 activity
same,inhibition of T4 deiodinases,T4 deiodinases,can inhibit
same,block of the binding of T4 to transthretin,transthretin,competitively block
O=C(CCc1ccc(O)cc1)c1c(O)cc(O)cc1O [phloretin],inhibition of deiodination,deiodination,potent inhibitor
